We go through 26 compounds from patent US12209087B2, “AKT1 modulators” (Alterome Therapeutics, Inc., priority 2022, dated 2025).

pIC50: −log10 of the molar value.

T1 sequence (P31749 whole entry E17K): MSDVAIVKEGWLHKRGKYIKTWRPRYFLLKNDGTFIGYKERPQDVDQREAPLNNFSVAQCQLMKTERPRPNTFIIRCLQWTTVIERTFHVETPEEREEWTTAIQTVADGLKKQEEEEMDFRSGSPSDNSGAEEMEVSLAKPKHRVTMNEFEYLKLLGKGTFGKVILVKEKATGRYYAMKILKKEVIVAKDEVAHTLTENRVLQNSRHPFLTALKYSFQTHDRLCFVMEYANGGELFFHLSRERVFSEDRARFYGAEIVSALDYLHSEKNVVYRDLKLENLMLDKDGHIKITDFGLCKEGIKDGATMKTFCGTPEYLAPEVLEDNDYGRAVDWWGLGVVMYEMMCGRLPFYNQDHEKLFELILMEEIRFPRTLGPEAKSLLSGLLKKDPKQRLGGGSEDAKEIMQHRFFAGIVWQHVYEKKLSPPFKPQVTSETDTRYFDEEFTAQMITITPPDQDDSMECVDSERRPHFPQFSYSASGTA

One assay has as its target T1, full length AKT E17K (Homo sapiens, UniProt P31749, E17K).
T1 construct: host or cells: HEK-293 (ATCC CRL-1573)
The experiment in a line: NanoBRET Target Engagement (TE) Assay. The format is cell-based. The following applies: competitive displacement of tracer in cells, read-out: AKT1 E17K IC50. A digest of the protocol: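 Compound and tracer incubated 2 h before luminescence at donor 450 nm and acceptor 600 nm, with extracellular signal inhibited. EC50 by sigmoidal variable-slope regression.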
In general terms: Bioluminescence resonance energy transfer reports proximity on the nanometre scale.
For `Cn1ncc(-c2ccc3nc(-c4cccnc4N)n(-c4ccc(CN5CCC(Nc6ccnc(C#N)n6)CC5)cc4)c3n2)n1` [Example 472, 4-((1-(4-(2-(2-Aminopyridin-3-yl)-5-(2-methyl-2H-1,2,3-triazol-4-yl)-3H-imidazo[4,5-b]pyridin-3-yl)benzyl)piperidin-4-yl)amino)pyrimidine-2-carbonitrile], the pIC50 is > 7.82. For the compound `N#Cc1nccc(N2C[C@H]3CN(Cc4ccc(-n5c(-c6cccnc6N)nc6ccc(-c7ccc(F)cc7)nc65)cc4)C[C@H]3C2)n1` [Example 449, 4-((3aR,6aS)-5-(4-(2-(2-Aminopyridin-3-yl)-5-(4-fluorophenyl)-3H-imidazo[4,5-b]pyridin-3-yl)benzyl)hexahydropyrrolo[3,4-c]pyrrol-2(1H)-yl)pyrimidine-2-carbonitrile], the pIC50 is 7.22 to 7.82. Turning to `[2H]C([2H])(F)Oc1ccc(-c2ccc3nc(-c4nccnc4N)n(-c4ccc(CN5CCC(Nc6ccnc(C#N)n6)CC5)cc4)c3n2)cn1` [Example 640, 4-((1-(4-(2-(3-Aminopyrazin-2-yl)-5-(6-(fluoromethoxy-d2)pyridin-3-yl)-3H-imidazo[4,5-b]pyridin-3-yl)benzyl)piperidin-4-yl)amino)pyrimidine-2-carbonitrile], the pIC50 was > 7.82. Still for that read-out and setting: the value for `Cc1ccnc(-c2ccc3nc(-c4cccnc4N)n(-c4ccc(CN5CCC(Nc6ccnc(C#N)n6)CC5)cc4)c3n2)c1` [Example 596, 4-((1-(4-(2-(2-Aminopyridin-3-yl)-5-(4-methylpyridin-2-yl)-3H-imidazo[4,5-b]pyridin-3-yl)benzyl)piperidin-4-yl)amino)pyrimidine-2-carbonitrile] was > 7.82. `CN(c1ccnc(C#N)n1)C1CCN(Cc2ccc(-n3c(-c4cccnc4N)nc4ccc(-c5ccc(F)cc5)nc43)cc2)CC1` [Example 541, 4-((1-(4-(2-(2-aminopyridin-3-yl)-5-(4-fluorophenyl)-3H-imidazo[4,5-b]pyridin-3-yl)benzyl)piperidin-4-yl)(methyl)amino)pyrimidine-2-carbonitrile]: the pIC50 was > 7.82. `N#Cc1nccc(NC2CC3(C2)CN(Cc2ccc(-n4c(-c5cccnc5N)nc5ccc(-c6ccc(F)cc6)nc54)cc2)C3)n1` [Example 445, 4-((2-(4-(2-(2-Aminopyridin-3-yl)-5-(4-fluorophenyl)-3H-imidazo[4,5-b]pyridin-3-yl)benzyl)-2-azaspiro[3.3]heptan-6-yl)amino)pyrimidine-2-carbonitrile]: the pIC50 is > 7.82. In the case of `N#Cc1nccc(N2CCN(Cc3ccc(-n4c(-c5cccnc5N)nc5ccc(-c6ccccc6Cl)nc54)cc3)CC2)n1` [Example 324, 4-(4-(4-(2-(2-Aminopyridin-3-yl)-5-(2-chlorophenyl)-3H-imidazo[4,5-b]pyridin-3-yl)benzyl)piperazin-1-yl)pyrimidine-2-carbonitrile], the pIC50 was > 7.82. Same read-out and setting: the value for `N#Cc1nccc(N2CCN(Cc3ccc(-n4c(-c5cccnc5N)nc5ccc(-c6ncccc6C#N)nc54)cc3)CC2)n1` [Example 407, 4-(4-(4-(2-(2-Aminopyridin-3-yl)-5-(3-cyanopyridin-2-yl)-3H-imidazo[4,5-b]pyridin-3-yl)benzyl)piperazin-1-yl)pyrimidine-2-carbonitrile] was > 7.82; that for `N#Cc1nccc(N2CCN(Cc3ccc(-n4c(-c5cccnc5N)nc5ccc(-c6ccc(=O)[nH]c6)nc54)cc3)CC2)n1` [Example 332, 4-(4-(4-(2-(2-Aminopyridin-3-yl)-5-(6-oxo-1,6-dihydropyridin-3-yl)-3H-imidazo[4,5-b]pyridin-3-yl)benzyl)piperazin-1-yl)pyrimidine-2-carbonitrile] was 5.00 to 6.22.

Turning to `Cn1cc(-c2ccc3nc(-c4cccnc4N)n(-c4ccc(CN5CCC(Nc6ccnc(C#N)n6)CC5)cc4)c3n2)nn1` [Example 438, 4-((1-(4-(2-(2-Aminopyridin-3-yl)-5-(1-methyl-1H-1,2,3-triazol-4-yl)-3H-imidazo[4,5-b]pyridin-3-yl)benzyl)piperidin-4-yl)amino)pyrimidine-2-carbonitrile], the pIC50 is > 7.82.

Turning to `[2H]C1(Nc2ccnc(C#N)n2)CCN(Cc2ccc(-n3c(-c4cccnc4N)nc4cccnc43)cc2)CC1` [Example 503, 4-((1-(4-(2-(2-Aminopyridin-3-yl)-3H-imidazo[4,5-b]pyridin-3-yl)benzyl)piperidin-4-yl-4-d)amino)pyrimidine-2-carbonitrile], the pIC50 is 7.22 to 7.82. Still for that read-out and setting: the value for `N#Cc1nccc(NC2CCN(Cc3ccc(-n4c(-c5cccnc5N)nc5ccc(-c6ccccc6C(F)(F)F)nc54)cc3)CC2)n1` [Example 470, 4-((1-(4-(2-(2-Aminopyridin-3-yl)-5-(2-(trifluoromethyl)phenyl)-3H-imidazo[4,5-b]pyridin-3-yl)benzyl)piperidin-4-yl)amino)pyrimidine-2-carbonitrile] was 6.22 to 7.22; that for `N#Cc1nccc(NC2CCN(Cc3ccc(-n4c(-c5cccnc5N)nc5ccc(-c6ccc(F)cc6O)nc54)cc3)CC2)n1` [Example 544, 4-((1-(4-(2-(2-Aminopyridin-3-yl)-5-(4-fluoro-2-hydroxyphenyl)-3H-imidazo[4,5-b]pyridin-3-yl)benzyl)piperidin-4-yl)amino)pyrimidine-2-carbonitrile] was > 7.82; that for `N#Cc1nccc(NC2CCN(Cc3ccc(-n4c(-c5cccnc5N)nc5ccc(-c6cnn(C7CC7)c6)nc54)cc3)CC2)n1` [Example 555, 4-((1-(4-(2-(2-Aminopyridin-3-yl)-5-(1-cyclopropyl-1H-pyrazol-4-yl)-3H-imidazo[4,5-b]pyridin-3-yl)benzyl)piperidin-4-yl)amino)pyrimidine-2-carbonitrile] was > 7.82. Same read-out and setting: as for `N#Cc1nccc(NC2CCN(Cc3ccc(-n4c(-c5cccnc5N)nc5ccc(N6CCOCC6=O)nc54)cc3)CC2)n1` [Example 387, 4-((1-(4-(2-(2-Aminopyridin-3-yl)-5-(3-oxomorpholino)-3H-imidazo[4,5-b]pyridin-3-yl)benzyl)piperidin-4-yl)amino)pyrimidine-2-carbonitrile], the figure is 6.22 to 7.22; as for `N#Cc1nccc(NC2CCN(Cc3ccc(-n4c(-c5cccnc5N)nc5ccc(-c6ccc(C7CC7)cn6)nc54)cc3)CC2)n1` [Example 644, 4-((1-(4-(2-(2-Aminopyridin-3-yl)-5-(5-cyclopropylpyridin-2-yl)-3H-imidazo[4,5-b]pyridin-3-yl)benzyl)piperidin-4-yl)amino)pyrimidine-2-carbonitrile], > 7.82.

Staying with this assay, now noted: competitive tracer displacement in living cells, read-out: AKT1 E17K IC50.
Turning to `N#Cc1ccnc(N2C[C@H]3C[C@@H]2CN3Cc2ccc(-n3c(-c4cccnc4N)nc4ccc(-c5ccccc5)nc43)cc2)n1` [Example 217, 2-((1R,4R)-5-(4-(2-(2-Aminopyridin-3-yl)-5-phenyl-3H-imidazo[4,5-b]pyridin-3-yl)benzyl)-2,5-diazabicyclo[2.2.1]heptan-2-yl)pyrimidine-4-carbonitrile], the pIC50 was 7.22 to 7.82. On the same count and under the same terms, the value for `N#Cc1nc(C(=O)N2CCN(Cc3ccc(-n4c(-c5cccnc5N)nc5ccc(-c6ccccc6)nc54)cc3)CC2)cs1` [Example 247, 4-(4-(4-(2-(2-Aminopyridin-3-yl)-5-phenyl-3H-imidazo[4,5-b]pyridin-3-yl)benzyl)piperazine-1-carbonyl)thiazole-2-carbonitrile] was > 7.82; that for `N#Cc1ccnc(NC2CCN(Cc3ccc(-n4c(-c5cccnc5N)nc5ccc(-c6ccccc6)nc54)cc3)CC2)n1` [Example 90, 2-((1-(4-(2-(2-Aminopyridin-3-yl)-5-phenyl-3H-imidazo[4,5-b]pyridin-3-yl)benzyl)piperidin-4-yl)amino)pyrimidine-4-carbonitrile] was > 7.82; that for `N#Cc1ccc(C(=O)NCc2ccc(-n3c(-c4cccnc4N)nc4cccnc43)cc2)nc1` [Example 124, N-(4-(2-(2-Aminopyridin-3-yl)-3H-imidazo[4,5-b]pyridin-3-yl)benzyl)-5-cyanopicolinamide] was 5.00 to 6.22. On to `N#Cc1nccnc1C(=O)N1CCN(Cc2ccc(-n3c(-c4cccnc4N)nc4cccnc43)cc2)CC1` [Example 164, 3-(4-(4-(2-(2-Aminopyridin-3-yl)-3H-imidazo[4,5-b]pyridin-3-yl)benzyl)piperazine-1-carbonyl)pyrazine-2-carbonitrile], for which the pIC50 was 5.00 to 6.22.

Take `N#Cc1ccnc(N2CCN(Cc3ccc(-n4c(-c5cccnc5N)nc5cccnc54)cc3)CC2)c1` [Example 17, 2-(4-(4-(2-(2-Aminopyridin-3-yl)-3H-imidazo[4,5-b]pyridin-3-yl)benzyl)piperazin-1-yl)isonicotinonitrile]: the pIC50 was 5.00 to 6.22. Regarding `C[C@@H]1CN(Cc2ccc(-n3c(-c4cccnc4N)nc4ccc(-c5ccccc5)nc43)cc2)CCN1c1nccc(C#N)n1` [Example 226, (R)-2-(4-(4-(2-(2-Aminopyridin-3-yl)-5-phenyl-3H-imidazo[4,5-b]pyridin-3-yl)benzyl)-2-methylpiperazin-1-yl)pyrimidine-4-carbonitrile], the pIC50 was 6.22 to 7.22. As for `N#Cc1ncccc1C(=O)NC1CCN(Cc2ccc(-n3c(-c4cccnc4N)nc4cccnc43)cc2)CC1` [Example 27, N-(1-(4-(2-(2-Aminopyridin-3-yl)-3H-imidazo[4,5-b]pyridin-3-yl)benzyl)piperidin-4-yl)-2-cyanonicotinamide], the pIC50 is 5.00 to 6.22. Consider `N#Cc1nccc(N2CCN(Cc3ccc(-n4c(-c5cccnc5N)nc5ccc(-c6cccc(F)c6)nc54)cc3)CC2)n1` [Example 295, 4-(4-(4-(2-(2-Aminopyridin-3-yl)-5-(3-fluorophenyl)-3H-imidazo[4,5-b]pyridin-3-yl)benzyl)piperazin-1-yl)pyrimidine-2-carbonitrile], for which the pIC50 was > 7.82. Consider `N#Cc1ccc(C(=O)NC2CCN(Cc3ccc(-n4c(-c5cccnc5N)nc5cccnc54)cc3)CC2)nc1` [Example 25, N-(1-(4-(2-(2-Aminopyridin-3-yl)-3H-imidazo[4,5-b]pyridin-3-yl)benzyl)piperidin-4-yl)-5-cyanopicolinamide], for which the pIC50 was 5.00 to 6.22.

Usually pIC50 stands for −log10 of the IC50, conventionally taken in molar units.
